Columns and labels:
[1] = test system: antibodies in sera from SARS patients (sera 1a, 1b, 2, 6, 37, 62, London, SARS-yellow, SARS-green); type: binding, human; design: Binding of serum 6 to linear peptides of protein X1 of SARS-CoV Urbani / Binding of serum 37 to linear peptides of protein X1 of SARS-CoV Urbani / Binding of serum 6 to looped/cyclic peptide (PEPSCAN-ELISA) / Binding of serum 37 to looped/cyclic peptide (PEPSCAN-ELISA) / Binding of serum 37 to looped/cyclic peptides of protein X1 of SARS-CoV Urbani / Binding of serum 6 to linear peptides of protein X2 / Binding of serum 37 to linear peptides of protein X2 / Binding of serum 37 to looped/cyclic peptides of protein X2 of SARS-CoV Urbani / Binding of serum 6 to linear peptides of protein M of SARS-CoV Urbani / Binding of serum 37 to linear peptides of protein M of SARS-CoV Urbani / Binding of serum 6 to looped/cyclic peptides of protein M of SARS-CoV Urbani / Binding of serum 37 to looped/cyclic peptides of protein M of SARS-CoV Urbani / Binding of serum 6 to linear peptides of protein X3 of SARS-CoV Urbani / Binding of serum 37 to linear peptides of protein X3 of SARS-CoV Urbani / Binding of serum 37 to looped/cyclic peptides of protein X3 of SARS-CoV Urbani / Binding of serum 6 to linear peptides of protein X4 of SARS-CoV Urbani / Binding of serum 37 to linear peptides of protein X4 of SARS-CoV Urbani / Binding of serum 37 to looped/cyclic peptides of protein X4 of SARS-CoV Urbani / Binding of serum 6 to linear peptides of protein X5 of SARS-CoV Urbani / Binding of serum 37 to linear peptides of protein X5 of SARS-CoV Urbani / Binding of serum 37 to looped/cyclic peptides of protein X5 of SARS-CoV Urbani / Binding of serum 6 to linear peptides of protein N of SARS-CoV Urbani / Binding of serum 37 to linear peptides of protein N of SARS-CoV Urbani / Binding of serum 6 to linear peptide (PEPSCAN-ELISA) / Binding of serum 1a to looped/cyclic peptides of protein N of SARS-CoV Urbani / Binding of serum 1b to looped/cyclic peptides of protein N of SARS-CoV Urbani / Binding of serum 2 to looped/cyclic peptides of protein N of SARS-CoV Urbani / Binding of serum 6 to looped/cyclic peptides of protein N of SARS-CoV Urbani / Binding of serum 37 to looped/cyclic peptides of protein N of SARS-CoV Urbani / Binding of serum 62 to looped/cyclic peptides of protein N of SARS-CoV Urbani / Binding of serum London to looped/cyclic peptides of protein N of SARS-CoV Urbani / Binding of serum SARS-green to looped/cyclic peptides of protein N of SARS-CoV Urbani: unit not given here
[2] = test system: control sera (pooled serum of ten healthy LUMC hospital workers; commercial negative donor pooled serum from the Dutch bloodbank); type: binding, human; design: Binding of Control serum LUMC to linear peptides / Binding of Control serum Blood-bank to linear peptides / Binding of Control serum LUMC to looped peptides / Binding of Control Serum Blood-Bank to Looped peptides / Binding of Control serum LUMC to linear peptides of the protein M of SARS-CoV Urbani / Binding of Control serum Blood-bank to linear peptides of the protein M of SARS-CoV Urbani / Binding of Control serum LUMC to looped peptides of the protein M of SARS-CoV Urbani / Binding of Control Serum Blood-Bank to Looped peptides of the protein M of SARS-CoV Urbani: unit not given here
[3] = test system: rabbit serum obtained by immunizing a rabbit with the SARS-CoV strain Frankfurt 1; type: binding; design: Binding of a rabbit serum to linear peptides / Binding of a rabbit serum to looped peptides / Rabbit serum linear peptides / Rabbit serum looped peptides / Binding of a rabbit serum to linear peptides of protein N of SARS-CoV Urbani (Rabbit serum linear peptides) / Binding of a rabbit serum to looped/cyclic peptides of protein N of SARS-CoV Urbani (Rabbit serum looped peptides): unit not given here

IAIWNLDVIISSIVR
0.3: Binding of serum 1b to looped/cyclic peptides of protein X3 of SARS-CoV Urbani [1] | Binding of serum SARS-green to linear peptides of protein X3 of SARS-CoV Urbani [1] | Rabbit serum linear peptides [3] | Rabbit serum looped peptides [3]
0.7: Binding of serum 1a to linear peptides of protein X3 of SARS-CoV Urbani [1] | Binding of serum 1a to looped/cyclic peptides of protein X3 of SARS-CoV Urbani [1] | Binding of Control Serum Blood-Bank to Looped peptides of the protein X3 of SARS-CoV Urbani [2] | Binding of Control serum LUMC to looped peptides of the protein X3 of SARS-CoV Urbani [2]
0.0: Binding of serum SARS-green to looped/cyclic peptides of protein X3 of SARS-CoV Urbani [1]
0.4: Binding of serum 6 to looped/cyclic peptides of protein X3 of SARS-CoV Urbani [1] | Binding of serum SARS-yellow to linear peptides of protein X3 of SARS-CoV Urbani [1]
0.2: Binding of serum London to looped/cyclic peptides of protein X3 of SARS-CoV Urbani [1]
0.5: Binding of serum 1b to linear peptides of protein X3 of SARS-CoV Urbani [1] | Binding of serum 6 to linear peptides of protein X3 of SARS-CoV Urbani [1] | Binding of serum 37 to linear peptides of protein X3 of SARS-CoV Urbani [1] | Binding of serum 62 to looped/cyclic peptides of protein X3 of SARS-CoV Urbani [1] | Binding of Control serum LUMC to linear peptides of the protein X3 of SARS-CoV Urbani [2]
0.6: Binding of serum 2 to linear peptides of protein X3 of SARS-CoV Urbani [1] | Binding of serum 2 to looped/cyclic peptides of protein X3 of SARS-CoV Urbani [1] | Binding of serum 37 to looped/cyclic peptides of protein X3 of SARS-CoV Urbani [1] | Binding of serum 62 to linear peptides of protein X3 of SARS-CoV Urbani [1] | Binding of serum London to linear peptides of protein X3 of SARS-CoV Urbani [1] | Binding of serum SARS-yellow to looped/cyclic peptides of protein X3 of SARS-CoV Urbani [1] | Binding of Control serum Blood-bank to linear peptides of the protein X3 of SARS-CoV Urbani [2]

ICNLLLLFVTIYSHL
0.6: Binding of serum 1a to linear peptides of protein X1 of SARS-CoV Urbani [1] | Binding of serum 1b to linear peptides of protein X1 of SARS-CoV Urbani [1] | Binding of serum 37 to linear peptides of protein X1 of SARS-CoV Urbani [1]
0.3: Binding of serum 1b to looped/cyclic peptide (PEPSCAN-ELISA) [1] | Binding of serum SARS-green to linear peptides of protein X1 of SARS-CoV Urbani [1]
0.4: Binding of serum 1a to looped/cyclic peptide (PEPSCAN-ELISA) [1] | Binding of serum 2 to looped/cyclic peptide (PEPSCAN-ELISA) [1] | Binding of serum 6 to linear peptides of protein X1 of SARS-CoV Urbani [1] | Binding of serum 37 to looped/cyclic peptide (PEPSCAN-ELISA) [1] | Binding of serum SARS-yellow to linear peptides of protein X1 of SARS-CoV Urbani [1] | Binding of serum SARS-yellow to looped/cyclic peptide (PEPSCAN-ELISA) [1] | Binding of Control serum LUMC to looped peptides [2]
0.5: Binding of serum 2 to linear peptides of protein X1 of SARS-CoV Urbani [1] | Binding of serum 62 to linear peptides of protein X1 of SARS-CoV Urbani [1] | Binding of serum 62 to looped/cyclic peptide (PEPSCAN-ELISA) [1] | Binding of Control Serum Blood-Bank to Looped peptides [2] | Binding of Control serum Blood-bank to linear peptides [2] | Binding of Control serum LUMC to linear peptides [2] | Binding of a rabbit serum to looped peptides [3]
0.2: Binding of serum 6 to looped/cyclic peptide (PEPSCAN-ELISA) [1] | Binding of serum London to linear peptides of protein X1 of SARS-CoV Urbani [1] | Binding of serum London to looped/cyclic peptide (PEPSCAN-ELISA) [1] | Binding of serum SARS-green to looped/cyclic peptide (PEPSCAN-ELISA) [1] | Binding of a rabbit serum to linear peptides [3]

IGFLFLAWIMLLQFA
0.8: Binding of serum 1a to looped/cyclic peptides of protein M of SARS-CoV Urbani [1] | Binding of serum 62 to looped/cyclic peptides of protein M of SARS-CoV Urbani [1] | Binding of Control serum LUMC to looped peptides of the protein M of SARS-CoV Urbani [2]
0.2: Binding of serum SARS-yellow to linear peptides of protein M of SARS-CoV Urbani [1] | Rabbit serum linear peptides [3]
0.9: Binding of serum 6 to linear peptides of protein M of SARS-CoV Urbani [1] | Binding of serum 6 to looped/cyclic peptides of protein M of SARS-CoV Urbani [1]
0.6: Binding of serum 1b to linear peptides of protein M of SARS-CoV Urbani [1] | Binding of serum 2 to looped/cyclic peptides of protein M of SARS-CoV Urbani [1] | Binding of serum London to linear peptides of protein M of SARS-CoV Urbani [1]
0.4: Binding of serum 37 to linear peptides of protein M of SARS-CoV Urbani [1]
0.5: Binding of serum 2 to linear peptides of protein M of SARS-CoV Urbani [1] | Binding of serum 62 to linear peptides of protein M of SARS-CoV Urbani [1] | Binding of serum SARS-green to linear peptides of protein M of SARS-CoV Urbani [1] | Binding of serum SARS-yellow to looped/cyclic peptides of protein M of SARS-CoV Urbani [1]
0.7: Binding of serum 1a to linear peptides of protein M of SARS-CoV Urbani [1] | Binding of serum 1b to looped/cyclic peptides of protein M of SARS-CoV Urbani [1] | Binding of serum 37 to looped/cyclic peptides of protein M of SARS-CoV Urbani [1] | Binding of Control Serum Blood-Bank to Looped peptides of the protein M of SARS-CoV Urbani [2] | Binding of Control serum Blood-bank to linear peptides of the protein M of SARS-CoV Urbani [2] | Binding of Control serum LUMC to linear peptides of the protein M of SARS-CoV Urbani [2]
0.3: Binding of serum London to looped/cyclic peptides of protein M of SARS-CoV Urbani [1] | Binding of serum SARS-green to looped/cyclic peptides of protein M of SARS-CoV Urbani [1] | Rabbit serum looped peptides [3]

IIMRCWLCWKCKSKN
0.2: Binding of serum London to looped/cyclic peptide (PEPSCAN-ELISA) [1] | Binding of serum SARS-green to looped/cyclic peptide (PEPSCAN-ELISA) [1] | Binding of a rabbit serum to linear peptides [3]
recognized in linear form: Recognition of the peptide by sera of SARS-CoV infected individuals, and form (linear, looped/cyclic) in which it is recognized [1]
0.3: Binding of serum 1b to looped/cyclic peptide (PEPSCAN-ELISA) [1] | Binding of serum 2 to looped/cyclic peptide (PEPSCAN-ELISA) [1] | Binding of serum SARS-yellow to looped/cyclic peptide (PEPSCAN-ELISA) [1]
0.4: Binding of serum 37 to looped/cyclic peptide (PEPSCAN-ELISA) [1] | Binding of Control serum LUMC to linear peptides [2]
0.5: Binding of serum 1a to looped/cyclic peptide (PEPSCAN-ELISA) [1] | Binding of serum 6 to looped/cyclic peptide (PEPSCAN-ELISA) [1] | Binding of serum 62 to looped/cyclic peptide (PEPSCAN-ELISA) [1] | Binding of Control serum Blood-bank to linear peptides [2]
0.7: Binding of a rabbit serum to looped peptides [3]
0.6: Binding of Control Serum Blood-Bank to Looped peptides [2] | Binding of Control serum LUMC to looped peptides [2]

IKDLPKEITVATSRT
0.7: Binding of serum 1a to linear peptides of protein M of SARS-CoV Urbani [1] | Binding of Control serum LUMC to looped peptides of the protein M of SARS-CoV Urbani [2]
0.8: Binding of serum 37 to linear peptides of protein M of SARS-CoV Urbani [1] | Binding of serum 62 to linear peptides of protein M of SARS-CoV Urbani [1]
0.9: Binding of serum SARS-yellow to looped/cyclic peptides of protein M of SARS-CoV Urbani [1]
0.0: Binding of serum SARS-yellow to linear peptides of protein M of SARS-CoV Urbani [1]
0.2: Binding of serum London to looped/cyclic peptides of protein M of SARS-CoV Urbani [1] | Binding of serum SARS-green to linear peptides of protein M of SARS-CoV Urbani [1] | Rabbit serum looped peptides [3]
0.4: Binding of serum 1a to looped/cyclic peptides of protein M of SARS-CoV Urbani [1] | Binding of serum 1b to looped/cyclic peptides of protein M of SARS-CoV Urbani [1] | Binding of serum 6 to looped/cyclic peptides of protein M of SARS-CoV Urbani [1] | Binding of Control serum LUMC to linear peptides of the protein M of SARS-CoV Urbani [2]
0.3: Binding of serum 6 to linear peptides of protein M of SARS-CoV Urbani [1] | Binding of serum London to linear peptides of protein M of SARS-CoV Urbani [1] | Binding of serum SARS-green to looped/cyclic peptides of protein M of SARS-CoV Urbani [1] | Rabbit serum linear peptides [3]
0.5: Binding of serum 1b to linear peptides of protein M of SARS-CoV Urbani [1] | Binding of serum 2 to looped/cyclic peptides of protein M of SARS-CoV Urbani [1] | Binding of Control Serum Blood-Bank to Looped peptides of the protein M of SARS-CoV Urbani [2]
0.6: Binding of serum 2 to linear peptides of protein M of SARS-CoV Urbani [1] | Binding of serum 37 to looped/cyclic peptides of protein M of SARS-CoV Urbani [1] | Binding of serum 62 to looped/cyclic peptides of protein M of SARS-CoV Urbani [1] | Binding of Control serum Blood-bank to linear peptides of the protein M of SARS-CoV Urbani [2]

From patent US20070128217A1 (priority 2003, published 2007)
